Data taken from patent publication US5068247A, “2-aminopentanoic acid compounds and their use as immunosuppressants” (priority 1989, dated 1991).

Legend:
[1] = tested on: allo-reactive cytotoxic T cell (EL4 target cells); assay: suppression of induction of allo-reactive cytotoxic T cell in mouse allogenic mixed lymphocyte culture (MLC), 51Cr release; format: cell-based
Protocol: The target cells used were leukemia cells EL4 from the syngenic (H-2^b) C57BL/6 mouse as used for preparation of the stimulator cells. By incubating 10^6 EL4 cells in the presence of 370 KBq of Na2^51 CrO4 at 37° C. for 1 hour, ^51 Cr was incorporated into the cytoplasm. The cells were washed, adjusted to the concentration of 10^4 cells/ml and used as the target cells.
For the assay of the cytotoxic activity, 100 μl of the effector cell suspension and 100 μl of the target cell suspension were added to a 96-well flat-bottomed microculture plate, and cultured at 37° C. for 4 hours. The amount of ^51 Cr released into the supernatant was determined and the cytotoxic activity was calculated by the following formula. [formula]
The activity of the cytotoxic T cell is expressed by LU (lytic unit) per 10^6 effector cells.

[2] = tested on: IL-2 production in mouse allogenic MLC; assay: suppression of IL-2 production in mouse allogenic MLC; format: cell-based
Protocol: Mouse allogenic MLC was carried out as follows:
After termination of culture, the supernatant was collected and used as the supernatant of mouse allogenic MLC.
The IL-2 and IL-3 activities in the supernatant of mouse allogenic MLC were assayed in the same way as in Experiment Example 4.

[3] = tested on: allo-reactive cytotoxic T cells in spleen of EL4-immunized BALB/c mice; assay: suppression of allo-reactive cytotoxic T cells induced by immunization of mouse with allogenic cells; format: in vivo
Protocol: Male 5- to 7-week-old BALB/c mice (H-2^d) were immunized with leukemia cell EL4 derived from C57BL/6 mice (H-2^b) (10^7 cells/mouse, intraperitoneal administration), and the test substance was administered intraperitoneally 5 times at the doses of 0.001 to 3 mg/kg/day or orally at the doses of 0.3 to 10 mg/kg/day from the day of immunization. Nine to ten days after immunization, the spleen was resected from the mice to prepare a single cell suspension and the suspension was used as effector cell suspension. The ^51 Cr-release assay was carried out in the same way as in Experiment Example 3, using EL4 cells as the target cells to measure the cytotoxic activity.
The activity of allo-reactive cytotoxic T cell is indicated by lytic unit (LU) per spleen. One lytic unit (LU) is defined as the number of effector cells required to cause 25% lysis of 5×10^3 target cells. At the same time, the body weight of mouse and number of spleen cells were also determined.

[4] = cytotoxicity to cultured tumor cell line MOLT4; format: cell-based, human; details: human, molt4 cells, read-out: Suppression
Protocol: (§1) Cytotoxicity to various human tumor cell lines was examined as follows:
(§2) Cells of human cell lines, K562, MOLT4, U937 and HL60 were respectively suspended to the concentration of 4×10^5 cells/ml in the RPMI1640 culture medium supplemented with 20% FCS. Fifty μl of each suspension was added to each well of a 96-well microtest plate to which 50 μl of the test solution had been added. After culturing the suspension at 37° C. in an atmosphere of 5% carbon dioxide for 72 hours, the absorbancy at 570 nm was measured in the same way as with the colorimetry using MTT in Experiment Example 1, and the percent suppression was calculated by the following formula, which was used as an index of cytotoxicity.

MOLT4 = assay: cytotoxicity to cultured tumor cell line MOLT4; format: cell-based, human
Protocol: as §1, §2

[5] = cytotoxicity to cultured tumor cell line U937; format: cell-based, human; details: human, u937 cells, read-out: Suppression
Protocol: as §1, §2

U937 = assay: cytotoxicity to cultured tumor cell line U937; format: cell-based, human
Protocol: as §1, §2

[6] = 0.01 mg/kg/day ip × 5, Table 9A
[7] = 0.03 mg/kg/day ip × 5, Table 9A

CCCCCCCCCCCCCCCC[C@@H](O)[C@H](O)[C@@](N)(CO)C(=O)O [Example 2]
Cytotoxic activity ([1]; 0.001 μg/ml, BALB/c responder): 16.0 LU/10^6 | Cytotoxic activity ([1]; 0.01 μg/ml, BALB/c responder): 13.0 LU/10^6 | Cytotoxic activity ([1]; 0.1 μg/ml, BALB/c responder): < 1.0 LU/10^6 | Cytotoxic activity ([1]; 1 μg/ml, BALB/c responder): < 1.0 LU/10^6 | inhibition at 0.001 µg/mL ([1]; Mus musculus, T-cell, 144 h, 0.001 μg/ml, BALB/c responder): 18.4% | inhibition at 0.01 µg/mL ([1]; Mus musculus, T-cell, 144 h, 0.01 μg/ml, BALB/c responder): 33.6% | inhibition at 0.1 µg/mL ([1]; Mus musculus, T-cell, 144 h, 0.1 μg/ml, BALB/c responder): > 95% | inhibition at 1 µg/mL ([1]; Mus musculus, T-cell, 144 h, 1 μg/ml, BALB/c responder): > 95% | induction of the allo-reactive cytotoxic T cell (in words), BALB/c responder ([1]; Table 3A): markedly inhibited | IL-2 activity ([2]; 0.0001 μg/ml): 3.9 U/ml | IL-2 activity ([2]; 0.001 μg/ml): 3.1 U/ml | IL-2 activity ([2]; 0.01 μg/ml): 3.6 U/ml | IL-2 activity ([2]; 0.1 μg/ml): 1 U/ml | IL-2 activity ([2]; 1 μg/ml): 1.6 U/ml | inhibition at 0.0001 µg/mL ([2]; Mus musculus, 48 h, 0.0001 μg/ml): 13.3% | inhibition at 0.001 µg/mL ([2]; Mus musculus, 48 h, 0.001 μg/ml): 31.1% | inhibition at 0.01 µg/mL ([2]; Mus musculus, 48 h, 0.01 μg/ml): 17.8% | inhibition at 0.1 µg/mL ([2]; Mus musculus, 48 h, 0.1 μg/ml): 68.9% | inhibition at 1 µg/mL ([2]; Mus musculus, 48 h, 1 μg/ml): 64.4% | Body weight 9 days after immunization [3, 6]: 29.0 ± 1.7 g | Cytotoxic T cell activity [3, 6]: 724 ± 202 LU/spleen | Cytotoxic T cell activity, suppression [3, 6]: 28.5% | Number of spleen cells [3, 6]: 3.2 ± 0.5 × 10^8 cell | Body weight 9 days after immunization [3, 7]: 28.5 ± 1.0 g | Cytotoxic T cell activity [3, 7]: 536 ± 272 LU/spleen | Cytotoxic T cell activity, suppression [3, 7]: 47.0% | Number of spleen cells [3, 7]: 2.6 ± 0.6 × 10^8 cell | Body weight 9 days after immunization ([3]; 0.1 mg/kg/day ip × 5, Table 9A): 28.3 ± 1.4 g | Cytotoxic T cell activity ([3]; 0.1 mg/kg/day ip × 5, Table 9A): 527 ± 172 LU/spleen | Cytotoxic T cell activity, suppression ([3]; 0.1 mg/kg/day ip × 5, Table 9A): 47.9% | Number of spleen cells ([3]; 0.1 mg/kg/day ip × 5, Table 9A): 2.8 ± 0.5 × 10^8 cell | Body weight 9 days after immunization ([3]; 0.3 mg/kg/day ip × 5, Table 9A): 29.0 ± 1.8 g | Cytotoxic T cell activity ([3]; 0.3 mg/kg/day ip × 5, Table 9A): 525 ± 58 LU/spleen | Cytotoxic T cell activity, suppression ([3]; 0.3 mg/kg/day ip × 5, Table 9A): 48.1% | Number of spleen cells ([3]; 0.3 mg/kg/day ip × 5, Table 9A): 3.1 ± 0.5 × 10^8 cell | Body weight 9 days after immunization ([3]; 0.3 mg/kg/day po × 5, Table 9B): 28.0 ± 0.7 g | Cytotoxic T cell activity ([3]; 0.3 mg/kg/day po × 5, Table 9B): 323 ± 97 LU/spleen | Cytotoxic T cell activity, suppression ([3]; 0.3 mg/kg/day po × 5, Table 9B): 65.0% | Number of spleen cells ([3]; 0.3 mg/kg/day po × 5, Table 9B): 1.4 ± 0.2 × 10^8 | Body weight 9 days after immunization ([3]; 1 mg/kg/day ip × 5, Table 9A): 27.3 ± 1.9 g | Cytotoxic T cell activity ([3]; 1 mg/kg/day ip × 5, Table 9A): 318 ± 128 LU/spleen | Cytotoxic T cell activity, suppression ([3]; 1 mg/kg/day ip × 5, Table 9A): 68.6% | Number of spleen cells ([3]; 1 mg/kg/day ip × 5, Table 9A): 3.2 ± 0.6 × 10^8 cell | Body weight 9 days after immunization ([3]; 1 mg/kg/day po × 5, Table 9B): 29.0 ± 1.7 g | Cytotoxic T cell activity ([3]; 1 mg/kg/day po × 5, Table 9B): 473 ± 92 LU/spleen | Cytotoxic T cell activity, suppression ([3]; 1 mg/kg/day po × 5, Table 9B): 48.7% | Number of spleen cells ([3]; 1 mg/kg/day po × 5, Table 9B): 1.4 ± 0.3 × 10^8 | Body weight 9 days after immunization ([3]; 3 mg/kg/day ip × 5, Table 9A): 28.6 ± 1.7 g | Cytotoxic T cell activity ([3]; 3 mg/kg/day ip × 5, Table 9A): < 50 LU/spleen | Cytotoxic T cell activity, suppression ([3]; 3 mg/kg/day ip × 5, Table 9A): 95.1% | Number of spleen cells ([3]; 3 mg/kg/day ip × 5, Table 9A): 2.7 ± 0.4 × 10^8 cell | Body weight 9 days after immunization ([3]; 3 mg/kg/day po × 5, Table 9B): 29.4 ± 1.5 g | Cytotoxic T cell activity ([3]; 3 mg/kg/day po × 5, Table 9B): 427 ± 100 LU/spleen | Cytotoxic T cell activity, suppression ([3]; 3 mg/kg/day po × 5, Table 9B): 53.7% | Number of spleen cells ([3]; 3 mg/kg/day po × 5, Table 9B): 2.0 ± 0.3 × 10^8 | Body weight 9 days after immunization ([3]; 10 mg/kg/day po × 5, Table 9B): 27.4 ± 1.7 g | Cytotoxic T cell activity ([3]; 10 mg/kg/day po × 5, Table 9B): 274 ± 82 LU/spleen | Cytotoxic T cell activity, suppression ([3]; 10 mg/kg/day po × 5, Table 9B): 70.3% | Number of spleen cells ([3]; 10 mg/kg/day po × 5, Table 9B): 1.6 ± 0.3 × 10^8 | induction of allo-reactive cytotoxic T cells (in words) ([3]; 5 times intraperitoneal or oral): strongly suppresses the induction of allo-reactive cytotoxic T cells | cytotoxicity at 72 h ([4]; 0.1 μg/ml): 0.9% | cytotoxicity at 72 h ([4]; 1 μg/ml): 11% | cytotoxicity at 72 h ([4]; 10 μg/ml): 9.4% | Absorbancy (MOLT4; 0.1 μg/ml): 1.144 ± 0.040 | Absorbancy (MOLT4; 1 μg/ml): 1.027 ± 0.009 | Absorbancy (MOLT4; 10 μg/ml): 1.045 ± 0.041 | cytotoxicity at 72 h ([5]; 1 μg/ml): 0.1% | cytotoxicity at 72 h ([5]; 10 μg/ml): 1.3% | cytotoxicity at 72 h ([5]; 0.1 μg/ml): 1.9% | Absorbancy (U937; 0.1 μg/ml): 0.669 ± 0.030 | Absorbancy (U937; 1 μg/ml): 0.681 ± 0.009 | Absorbancy (U937; 10 μg/ml): 0.673 ± 0.111
